Source: a compilation of properties of binary mixtures (doi:10.1016/j.molliq.2017.08.088)

Assay: xn = mol fraction of the nth substance listed
Conditions: 101 kPa

CN(CCO)CCO + CCCC[n+]1ccn(C)c1.F[B-](F)(F)F
viscosity [mPa·s]
Conditions	x2 = 0.1002	x2 = 0.1974	x2 = 0.3	x2 = 0.4001	x2 = 0.4998	x2 = 0.6	x2 = 0.6997	x2 = 0.7998	x2 = 0.8999
293.15 K	89.3	82.9	78.9	75.2	73.6	74.2	79.1	87.9	–
303.15 K	49.9	46.2	–	42.4	42.4	43.8	47.5	53.1	–
313.15 K	30	28	26.4	26.1	26.4	27.7	30.4	34	41.2
323.15 K	18.9	–	17.2	17.2	17.7	–	20.6	23.3	27.8
333.15 K	12.75	–	11.84	12.03	12.44	13.35	14.8	–	19.8
